Consider 72 molecules from the OPERA property sets (Mansouri et al. 2018).

Structures are written as SMILES. Values after ≈ are worked out from the molar mass of the structure shown.

For one data set the following is noted: 20 °C.
As a reminder, the solubility is the dissolved amount per volume that the medium holds. `CC(C)C1(Br)C(=O)NC(=O)NC1=O` came in with a solubility of 6.18 mM (≈ 1540 µg/mL).

In turn, `c1ncc2n[nH]nc2n1` returned a solubility of 586 mM (≈ 71000 µg/mL).

Regarding `OCc1ccc(Cl)cc1Cl`, the solubility stood at 5.65 mM (≈ 1000 µg/mL).

In turn, `O=[N+]([O-])c1ccccc1CO` yielded a solubility of 32.7 mM (≈ 5000 µg/mL).

`CC=CCC1(C)C(=O)NC(=O)N(C)C1=O` (configuration not stated) displayed a solubility of 28.5 mM (≈ 6000 µg/mL).

In turn, `COc1nsc(N)n1` showed a solubility of 57.2 mM (≈ 7500 µg/mL).

Staying with this data set, now noted: 22 °C.
The molecule `CCOP(=O)(Cc1ccc(-c2nc3ccccc3s2)cc1)OCC` registered a solubility of 0.0996 mM (≈ 36 µg/mL).

As to `Cc1ccc(N)cc1C`, the solubility was determined as 31.4 mM (≈ 3800 µg/mL).

Staying with this data set, now noted: 23 °C.
Turning to `CC(=O)C1(C)CO1` (configuration not stated), the solubility amounted to 2400 mM (≈ 240000 µg/mL).

`NC(=O)C[C@H](NC(N)=O)C(=O)O` displayed a solubility of 308 mM (≈ 54000 µg/mL).

Still in this data set, the particulars now being: 24 °C.
As for `Cc1ccc(S(N)(=O)=O)cc1N`, the solubility is 12.1 mM (≈ 2260 µg/mL).

The same data set, now with this note: 25 °C.
For the molecule `CC(N)C(O)C(=O)O` (configuration not stated), the solubility came out at 443 mM (≈ 52800 µg/mL).

In turn, `CCOC(=S)SC(C)C(=O)O` (configuration not stated) displayed a solubility of 35.6 mM (≈ 6910 µg/mL).

The molecule `O=c1ccccc(Br)c1O` returned a solubility of 3.67 mM (≈ 738 µg/mL).

As to `Cc1nnc(N)nc1C`, the solubility was 80.6 mM (≈ 10000 µg/mL).

`CC1(C)OC(=O)c2ccccc21`: the solubility was determined as 13.5 mM (≈ 2200 µg/mL).

As for `O=[N+]([O-])c1cc([N+](=O)[O-])c(-c2ccccc2)cc1O`, the solubility worked out at 0.0346 mM (≈ 9 µg/mL).

On to `CCOCCC(=O)OC`, for which the solubility came out at 847 mM (≈ 112000 µg/mL).

The molecule `CCCCCCCCCC(C(=O)O)C(=O)O` registered a solubility of 0.499 mM (≈ 115 µg/mL).

`CCC1(C)OC(=O)NC1=O` (configuration not stated) came in with a solubility of 1050 mM (≈ 150000 µg/mL).

In turn, `O=C(O)c1cccc(C(=O)O)c1[N+](=O)[O-]` had a solubility of 10.2 mM (≈ 2160 µg/mL).

For the molecule `O=I(=O)c1ccccc1`, the solubility was 14.4 mM (≈ 3400 µg/mL).

With `COCCCl`, the solubility was 846 mM (≈ 80000 µg/mL).

`Oc1cnn(-c2ccccc2)c1` registered a solubility of 10.9 mM (≈ 1750 µg/mL).

In the case of `OCc1ccccc1CO`, the solubility was determined as 1140 mM (≈ 158000 µg/mL).

For the molecule `CCCCC(C)C(C)O` (configuration not stated), the solubility amounted to 8.75 mM (≈ 1140 µg/mL).

`c1ccc(-c2cccnc2)nc1`: the solubility came out at 256 mM (≈ 40000 µg/mL).

On to `CCCCC(CC)COC(=O)NS(N)(=O)=O` (configuration not stated), for which the solubility amounted to 3.96 mM (≈ 1000 µg/mL).

`CCCCCCCCOC(=O)C(C)O` (configuration not stated) gave a solubility of 53.4 mM (≈ 10800 µg/mL).

As to `N#CSc1ccc(N)cc1`, the solubility is 2.5 mM (≈ 376 µg/mL).

Consider `CCCCCCCCOC(=O)c1cccnc1`, for which the solubility amounted to 0.807 mM (≈ 190 µg/mL).

Take `Nc1ccc(S(=O)(=O)c2ccc(Cl)cc2)cc1`: the solubility was 0.0747 mM (≈ 20 µg/mL).

Turning to `CC(=O)NC(=O)NC(C)=O`, the solubility stood at 486 mM (≈ 70000 µg/mL).

For `CCCCP(=O)(CCCC)OCC`, the solubility is 63 mM (≈ 13000 µg/mL).

In turn, `CCCCC(=O)Oc1ccc([N+](=O)[O-])cc1` came in with a solubility of 0.0403 mM (≈ 9 µg/mL).

With `CCCCOP(=O)(OC)OCCCC`, the solubility was found to be 31.7 mM (≈ 7100 µg/mL).

On to `CCCC(C)CC(C)O` (configuration not stated), for which the solubility amounted to 13.2 mM (≈ 1730 µg/mL).

The molecule `CCSC(C(=O)O)c1ccccc1` (configuration not stated) showed a solubility of 27 mM (≈ 5300 µg/mL).

`N#CCCN(CCC#N)C(CC(=O)O)C(=O)O` (racemic): the solubility turned out to be 29.3 mM (≈ 7000 µg/mL).

`CCCCCCC(C/C=C\CCCCCCCC(=O)O)OS(=O)(=O)O` (configuration not stated): the solubility worked out at 264 mM (≈ 100000 µg/mL).

The molecule `CCC(C)CC(O)CC` (configuration not stated) showed a solubility of 13.8 mM (≈ 1800 µg/mL).

On to `CCCCCCCCCCOC(=O)c1cccnc1`, for which the solubility stood at 0.646 mM (≈ 170 µg/mL).

The molecule `C[C@@H](N)C(C)(C)C` displayed a solubility of 9690 mM (≈ 980000 µg/mL).

The molecule `CCC(=O)Oc1ccc([N+](=O)[O-])cc1` gave a solubility of 0.128 mM (≈ 25 µg/mL).

The molecule `Sc1nc2ccccc2o1` registered a solubility of 6.61 mM (≈ 1000 µg/mL).

`CCCCOC(=O)NS(N)(=O)=O`: the solubility was 91.7 mM (≈ 18000 µg/mL).

As to `CCCCCCCCCCNC(=O)c1cccnc1`, the solubility came out at 0.838 mM (≈ 220 µg/mL).

Consider `Cc1ccc(/N=N/c2cc(C)ccc2N)cc1`, for which the solubility amounted to 0.125 mM (≈ 28.2 µg/mL).

Molecule `Cc1nc(Br)[nH]c1[N+](=O)[O-]` registered a solubility of 16.2 mM (≈ 3330 µg/mL).

Regarding `NC(C(=O)O)C(O)C(=O)O` (configuration not stated), the solubility came to 149 mM (≈ 22200 µg/mL).

Molecule `O=C(O)c1ccc(NC(=O)c2cccnc2)cc1` had a solubility of 0.826 mM (≈ 200 µg/mL).

The molecule `CCC/C(=C\C(=O)O)C(=O)O` had a solubility of 70.2 mM (≈ 11100 µg/mL).

In turn, `N#CI` registered a solubility of 233 mM (≈ 35600 µg/mL).

Molecule `O=NN1CCCC1=O` came in with a solubility of 1130 mM (≈ 129000 µg/mL).

On to `O=C(O)C(S)CCC(S)C(=O)O` (configuration not stated), for which the solubility is 3.34 mM (≈ 703 µg/mL).

With `CCCCCN(N=Cc1ccc([N+](=O)[O-])o1)C(N)=O`, the solubility was 1.27 mM (≈ 340 µg/mL).

As for `CCCCCOP(=O)(OCC)OCC`, the solubility was 33.4 mM (≈ 7500 µg/mL).

In turn, `CCCCOP(=O)(CCCC)CCCC` yielded a solubility of 19.2 mM (≈ 4500 µg/mL).

As for `O=C(O)CSCC(=O)O`, the solubility amounted to 2660 mM (≈ 400000 µg/mL).

In the case of `O=C1OCc2ccc(I)cc21`, the solubility turned out to be 0.615 mM (≈ 160 µg/mL).

As to `O=C1OCc2ccc(Cl)cc21`, the solubility came out at 3.3 mM (≈ 556 µg/mL).

Staying with this data set, now noted: 26 °C.
Turning to `N#CCCN(CCC#N)[C@@H](CCC(=O)O)C(=O)O`, the solubility was 592 mM (≈ 150000 µg/mL).

For `CSC1=CC(=O)c2ccccc2C1=O`, the solubility turned out to be 0.0343 mM (≈ 7 µg/mL).

The same data set, now with this note: 30 °C.
For `CCCCCCCOC(=O)c1ccc(O)cc1`, the solubility worked out at 0.0846 mM (≈ 20 µg/mL).

Turning to `CCn1c(=O)c2c(ncn2C)n(C)c1=O`, the solubility is 191 mM (≈ 39800 µg/mL).

For `COC(=O)CNC(=O)c1ccccc1`, the solubility stood at 88 mM (≈ 17000 µg/mL).

As to `O=C(O)CCCCCc1ccccc1`, the solubility worked out at 2.5 mM (≈ 480 µg/mL).

In the case of `CCc1cccc(C)n1`, the solubility is 150 mM (≈ 18200 µg/mL).

On to `CCCn1c(=O)c2c(ncn2C)n(C)c1=O`, for which the solubility came to 61.9 mM (≈ 13800 µg/mL).

In turn, `CCN(CC)C(C#N)c1ccccc1` (configuration not stated) returned a solubility of 106 mM (≈ 20000 µg/mL).

Molecule `CCc1ccccc1NC(C)=O` registered a solubility of 25.7 mM (≈ 4190 µg/mL).

In the case of `CCn1cnc2c1c(=O)n(C)c(=O)n2C`, the solubility was found to be 176 mM (≈ 36700 µg/mL).
